# According to article PMC9519552, “Activation of the human insulin receptor by non-insulin-related peptides” (Nature Communications, 2022):
# Like-named read-outs stand apart in the source and are kept apart here. Positions of bridges follow the written chain, without caps; N, C: chain ends. Residues, ends and D or L forms follow the SMILES beside them.
# Legend:
# human IR-A (holoIR-A) = biological target: T1, human IR-A (holoIR-A) (Homo sapiens, UniProt P06213); experiment: holoIR-A competitive radioligand binding assay (scintillation proximity assay)
# T1 construct: expressed in transfected cells; host or cells: HEK293 (ATCC #CRL-1573), stably transfected; membrane preparation
# T1 sequence (P06213 28-1370 isoform P06213-2 limits assumed): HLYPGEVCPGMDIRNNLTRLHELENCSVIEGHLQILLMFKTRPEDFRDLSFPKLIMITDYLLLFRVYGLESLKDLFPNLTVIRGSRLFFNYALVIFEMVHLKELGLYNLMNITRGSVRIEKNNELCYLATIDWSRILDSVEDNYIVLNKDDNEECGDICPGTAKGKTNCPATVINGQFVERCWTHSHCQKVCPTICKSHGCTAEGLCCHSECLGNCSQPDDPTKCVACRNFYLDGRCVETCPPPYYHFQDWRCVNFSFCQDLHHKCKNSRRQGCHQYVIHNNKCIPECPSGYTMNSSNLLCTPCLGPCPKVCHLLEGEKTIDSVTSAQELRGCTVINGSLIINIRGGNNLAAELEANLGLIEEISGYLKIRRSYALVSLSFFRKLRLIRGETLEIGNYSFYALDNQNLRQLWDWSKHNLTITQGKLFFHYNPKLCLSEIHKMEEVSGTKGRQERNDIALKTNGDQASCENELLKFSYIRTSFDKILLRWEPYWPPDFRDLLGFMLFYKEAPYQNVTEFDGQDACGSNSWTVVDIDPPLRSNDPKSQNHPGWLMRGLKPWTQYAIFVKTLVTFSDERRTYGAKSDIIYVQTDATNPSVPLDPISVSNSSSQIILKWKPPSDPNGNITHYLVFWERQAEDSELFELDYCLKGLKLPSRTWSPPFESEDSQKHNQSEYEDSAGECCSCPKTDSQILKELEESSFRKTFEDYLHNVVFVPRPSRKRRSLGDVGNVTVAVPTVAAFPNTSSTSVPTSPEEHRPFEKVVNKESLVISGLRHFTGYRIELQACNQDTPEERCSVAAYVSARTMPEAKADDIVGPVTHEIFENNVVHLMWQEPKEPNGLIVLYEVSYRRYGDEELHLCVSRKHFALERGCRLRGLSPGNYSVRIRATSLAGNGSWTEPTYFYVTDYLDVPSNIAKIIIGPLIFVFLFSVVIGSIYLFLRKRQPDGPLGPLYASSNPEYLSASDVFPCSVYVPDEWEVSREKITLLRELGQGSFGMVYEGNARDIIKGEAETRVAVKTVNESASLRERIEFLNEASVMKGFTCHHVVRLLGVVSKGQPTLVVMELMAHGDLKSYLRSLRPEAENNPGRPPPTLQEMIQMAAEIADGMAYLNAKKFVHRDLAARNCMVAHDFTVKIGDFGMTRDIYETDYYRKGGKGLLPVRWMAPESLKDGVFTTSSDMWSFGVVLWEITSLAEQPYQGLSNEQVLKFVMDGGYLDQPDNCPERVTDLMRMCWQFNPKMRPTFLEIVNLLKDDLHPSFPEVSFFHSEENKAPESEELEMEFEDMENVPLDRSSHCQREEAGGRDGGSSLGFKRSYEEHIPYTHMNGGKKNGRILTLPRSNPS
# T1 sequence (P06213 763-1382 partner limits assumed): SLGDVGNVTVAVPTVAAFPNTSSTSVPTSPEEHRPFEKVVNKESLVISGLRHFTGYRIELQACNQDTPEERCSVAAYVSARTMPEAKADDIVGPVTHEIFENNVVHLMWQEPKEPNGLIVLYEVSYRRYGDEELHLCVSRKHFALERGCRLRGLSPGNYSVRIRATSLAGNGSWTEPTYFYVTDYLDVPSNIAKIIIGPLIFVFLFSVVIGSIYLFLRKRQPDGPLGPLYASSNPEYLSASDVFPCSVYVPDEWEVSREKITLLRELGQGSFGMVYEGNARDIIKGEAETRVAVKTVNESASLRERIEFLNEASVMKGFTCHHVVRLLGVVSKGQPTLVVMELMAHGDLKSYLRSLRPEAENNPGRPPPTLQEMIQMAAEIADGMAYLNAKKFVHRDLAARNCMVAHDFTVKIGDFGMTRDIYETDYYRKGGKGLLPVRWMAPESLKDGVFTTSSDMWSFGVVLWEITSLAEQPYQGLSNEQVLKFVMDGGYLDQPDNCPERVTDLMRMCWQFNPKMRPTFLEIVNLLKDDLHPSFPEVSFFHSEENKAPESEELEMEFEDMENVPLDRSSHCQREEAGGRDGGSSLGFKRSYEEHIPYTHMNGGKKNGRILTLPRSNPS
# Method: Cellular membranes were prepared from human embryonic kidney (HEK293; ATCC #CRL-1573) cells stably transfected with cDNA corresponding to human IR-A (holoIR-A) plus a C-terminal C9 tag ([…]) inserted within a pcDNA3.1 plasmid (Invitrogen), with positive clones selected with 800 μg mL^−1 neomycin and confirmed by Western Blot. Frozen cell pellets were thawed in ice-cold homogenization/resuspension buffer (50 mM Tris-HCl, pH 7.5) containing one cOmplete® protease inhibitor tablet with EDTA (Roche Diagnostics) per 50 mL buffer. Cells were homogenized with an overhead motor-driven Teflon-glass homogenizer using 15–20 strokes, followed by centrifugation at 1100 × g for 10 min at 4 °C. The supernatant was saved on ice, pellets were homogenized as before, and centrifuged at 1100 × g for 10 min at 4 °C. Both supernatants were combined and subsequently centrifuged at 35,000 × g for 60 min at 4 °C. The pellet was resuspended in buffer (4 to 5 mL g^−1 of starting cell paste) containing protease inhibitors and quick frozen in liquid nitrogen prior to storage at −80 °C. Protein concentration was determined using a BCA kit (Thermo Scientific) with bovine serum albumin (BSA) as standard.
# The assays were performed with a scintillation proximity assay (SPA) method using polyvinyltoluene (PVT) wheat germ agglutinin-coupled SPA beads (Perkin Elmer). Assay buffer containing 50 mM Tris-HCl (pH 7.5), 150 mM NaCl, 0.1% w/v fatty-acid free BSA was used for all compound testing and reagent preparation. Ten-point concentration response curves with three-fold serial dilutions of test samples or controls were prepared in the assay buffer. […] Plates were sealed and shaken for 1 min on a plate shaker. Following a 10-h incubation and bead settling period at room temperature, radioactivity was determined using a MicroBeta Trilux scintillation counter (Perkin Elmer) and expressed as counts per minute (CPM). […] Samples were tested in three independent assay runs on three different days.
# All test sample concentration responses were normalized to the control response and calculated as a percent of the maximal response after correcting for nonspecific binding as shown below: %Specific Inhibition=100%−[(CPM−MIN)/(MAX−MIN)×100%]
# Percent specific binding (y-axis) was plotted vs log concentration of compound (x-axis) using Prism Version 9.3.1 (GraphPad Software). Individual measurements are provided as Source Data.
# [1] = biological target: T2, human holoIR-A over-expressed in HEK293 cells (Homo sapiens, UniProt P06213); experiment: Inhibition of hIR phosphorylation by peptides, co-incubated with BHI at its EC50 (ELISA); assay type: cell-based; conditions: for hIRA Phosph IC50 Run 1 / hIRA Phosph IC50 Run 2 / hIRA Phosph IC50 Run 3: inhibition of insulin-stimulated phosphorylation; for hIRA Phosph IC50 Run 1: BHI at its EC50, run 1; for hIRA Phosph IC50 Run 2: BHI at its EC50, run 2; for hIRA Phosph IC50 Run 3: BHI at its EC50, run 3; for IC50: read-out: hIRA Phosph IC50 Mean
# T2 construct: expressed in transfected cells; host or cells: HEK293, stably transfected
# T2 sequence (P06213 28-1370 isoform P06213-2 limits assumed): as the sequence (P06213 28-1370 isoform P06213-2 limits assumed) above
# T2 sequence (P06213 763-1382 partner limits assumed): as the sequence (P06213 763-1382 partner limits assumed) above
# Method: Phosphorylation was quantified using an ELISA technique. Ninety-six well, flat-bottom microplates (Greiner Bio-One) were pre-coated with 2 µg mL^−1 anti-C9 monoclonal antibody (Rho 1D4; University of British Columbia)[27] in 20 mM sodium carbonate, pH 9.6, at 4 °C for overnight prior to the assay. On the assay day, plates were washed 3× with 0.1% Tween in 50 mM Tris Buffer Saline, pH 7.5 (TBST), and then blocked for greater than 1 h at room temperature (RT) with 1% BSA (Sigma) in TBST.
# Stably transfected HEK293 cells over-expressing human holoIR-A containing a C-terminal C9 epitope tag ([…]), were plated at 6 × 10^4 cells per well serum-starved using 0.1% BSA in DMEM (Gibco) for overnight at standard tissue culture condition. […] After a 15-min incubation in lysis buffer at 4 °C, the lysate was transferred to anti-C9 antibody coated capture plate (Rho 1D4; University of British Columbia)[27]. […] After a 1 h incubation at room temperature, the secondary antibody was removed by washing 3× with TBST. Signal detection occurred with the addition of TMB, an HRP substrate (Pierce). After 5–10 min, the reaction was stopped by adding an equal volume of 2 M H2SO4, and the absorbance readings at 450 nm (A450) were recorded using a Envision plate reader (PerkinElmer). Samples were tested in three independent assay runs on three different days.
# Percent specific response (y-axis) was plotted versus the log concentration of compound (x-axis) using Prism Version 9.3.1 (GraphPad Software). Individual measurements are provided as Source Data.
# [2] = IM172N22(-) mutant peptide set, run 1, read-out: hIRA Binding Ki Run 1
# [3] = IM172N22(-) mutant peptide set, run 2, read-out: hIRA Binding Ki Run 2
# [4] = IM172N22(-) mutant peptide set, run 3, read-out: hIRA Binding Ki Run 3
# [5] = IM172N22(-) mutant peptide set, mean of 3 runs, read-out: hIRA Binding Ki Mean
Ki (human IR-A (holoIR-A); [2]) [nM],Ki (human IR-A (holoIR-A); [3]) [nM],Ki (human IR-A (holoIR-A); [4]) [nM],hIRA Phosph IC50 Run 1 [1] [nM],hIRA Phosph IC50 Run 2 [1] [nM],hIRA Phosph IC50 Run 3 [1] [nM],IC50 [1] [nM],Ki (human IR-A (holoIR-A); [5]) [nM],reduction in ki for hIR-A on substitution (human IR-A (holoIR-A); relative to control peptide IM172N22 devoid of N-terminal phenylacetylation),SMILES,Ki (human IR-A (holoIR-A); read-out: hIRA Binding Ki Mean) [nM]
42.4,35.7,35.9,367,259,348,325,38,,CC[C@H](C)[C@H](NC(=O)[C@H](CCC(N)=O)NC(=O)[C@H](C)NC(=O)[C@H](Cc1c[nH]c2ccccc12)NC(=O)[C@H](CCC(=O)O)NC(=O)[C@H](CCCNC(=N)N)NC(=O)[C@H](CCC(=O)O)NC(=O)[C@H](CC(C)C)NC(=O)[C@H](CO)NC(C)=O)C(=O)N[C@@H](CCC(=O)O)C(=O)N[C@H]1CSSC[C@@H](C(=O)N2CCC[C@H]2C(=O)N2CCC[C@H]2C(=O)N[C@@H](CO)C(=O)N[C@@H](CCC(=O)O)C(=O)N[C@@H](CO)C(N)=O)NC(=O)[C@H](CCCNC(=N)N)NC(=O)CNC(=O)[C@H](Cc2ccc(O)cc2)NC(=O)[C@H](C(C)C)NC(=O)[C@H](CCC(=O)O)NC1=O [Peptide E4R] (Ac-SLEREWAQIECEVYGRCPPSES-NH2; disulfide 11-17),
107,98,89.4,316,264,378,319,98,,CC[C@H](C)[C@H](NC(=O)[C@H](CCC(N)=O)NC(=O)[C@H](C)NC(=O)[C@H](Cc1c[nH]c2ccccc12)NC(=O)[C@H](C)NC(=O)[C@H](CCC(=O)O)NC(=O)[C@H](CCC(=O)O)NC(=O)[C@H](CC(C)C)NC(=O)[C@H](CO)NC(C)=O)C(=O)N[C@@H](CCC(=O)O)C(=O)N[C@H]1CSSC[C@@H](C(=O)N2CCC[C@H]2C(=O)N2CCC[C@H]2C(=O)N[C@@H](CO)C(=O)N[C@@H](CCC(=O)O)C(=O)N[C@@H](CO)C(N)=O)NC(=O)[C@H](CCCNC(=N)N)NC(=O)CNC(=O)[C@H](Cc2ccc(O)cc2)NC(=O)[C@H](C(C)C)NC(=O)[C@H](CCC(=O)O)NC1=O [Peptide E5A] (Ac-SLEEAWAQIECEVYGRCPPSES-NH2; disulfide 11-17),
620,541,500,1351,1340,1323,1340,554,,CC[C@H](C)[C@H](NC(=O)[C@H](CCC(N)=O)NC(=O)[C@H](C)NC(=O)[C@H](Cc1c[nH]c2ccccc12)NC(=O)[C@H](CCCNC(=N)N)NC(=O)[C@H](CCC(=O)O)NC(=O)[C@H](CCC(=O)O)NC(=O)[C@H](CC(C)C)NC(=O)[C@H](CO)NC(C)=O)C(=O)N[C@@H](CCC(=O)O)C(=O)N[C@H]1CSSC[C@@H](C(=O)N2CCC[C@H]2C(=O)N2CCC[C@H]2C(=O)N[C@@H](CO)C(=O)N[C@@H](CCC(=O)O)C(=O)N[C@@H](CO)C(N)=O)NC(=O)[C@H](CCCNC(=N)N)NC(=O)CNC(=O)[C@H](Cc2ccc(O)cc2)NC(=O)[C@H](C(C)C)NC(=O)[C@H](CCC(=O)O)NC1=O [Peptide E5R] (Ac-SLEERWAQIECEVYGRCPPSES-NH2; disulfide 11-17),

# Continued, molecule first:
SMILES,Ki (human IR-A (holoIR-A); [2]) [nM],Ki (human IR-A (holoIR-A); [3]) [nM],Ki (human IR-A (holoIR-A); [4]) [nM],hIRA Phosph IC50 Run 1 [1] [nM],hIRA Phosph IC50 Run 2 [1] [nM],hIRA Phosph IC50 Run 3 [1] [nM],IC50 [1] [nM],Ki (human IR-A (holoIR-A); [5]) [nM],reduction in ki for hIR-A on substitution (human IR-A (holoIR-A); relative to control peptide IM172N22 devoid of N-terminal phenylacetylation),Ki (human IR-A (holoIR-A); read-out: hIRA Binding Ki Mean) [nM]
CC[C@H](C)[C@H](NC(=O)[C@H](CCC(N)=O)NC(=O)[C@H](C)NC(=O)[C@H](Cc1c[nH]c2ccccc12)NC(=O)[C@H](CCC(=O)O)NC(=O)[C@H](CCC(=O)O)NC(=O)[C@H](CCC(=O)O)NC(=O)[C@H](CC(C)C)NC(=O)[C@H](CO)NC(C)=O)C(=O)N[C@@H](CCC(=O)O)C(=O)N[C@H]1CSSC[C@@H](C(=O)N2CCC[C@H]2C(=O)N2CCC[C@H]2C(=O)N[C@@H](CO)C(=O)N[C@@H](CCC(=O)O)C(=O)N[C@@H](CO)C(N)=O)NC(=O)[C@H](CCCNC(=N)N)NC(=O)CNC(=O)[C@H](Cc2ccc(O)cc2)NC(=O)[C@H](C(C)C)NC(=O)[C@H](CCC(=O)O)NC1=O [IM172N22-] (Ac-SLEEEWAQIECEVYGRCPPSES-NH2; disulfide 11-17),7.07,8.06,9.36,85,76,80,80.3,,,8.16
CC[C@H](C)[C@H](NC(=O)[C@H](CCC(N)=O)NC(=O)[C@H](C)NC(=O)[C@H](Cc1c[nH]c2ccccc12)NC(=O)[C@H](CCC(=O)O)NC(=O)[C@H](CCC(=O)O)NC(=O)[C@H](C)NC(=O)[C@H](CC(C)C)NC(=O)[C@H](CO)NC(C)=O)C(=O)N[C@@H](CCC(=O)O)C(=O)N[C@H]1CSSC[C@@H](C(=O)N2CCC[C@H]2C(=O)N2CCC[C@H]2C(=O)N[C@@H](CO)C(=O)N[C@@H](CCC(=O)O)C(=O)N[C@@H](CO)C(N)=O)NC(=O)[C@H](CCCNC(=N)N)NC(=O)CNC(=O)[C@H](Cc2ccc(O)cc2)NC(=O)[C@H](C(C)C)NC(=O)[C@H](CCC(=O)O)NC1=O [Peptide E3A] (Ac-SLAEEWAQIECEVYGRCPPSES-NH2; disulfide 11-17),335,353,337,1212,1189,1302,1230,342,,
CC[C@H](C)[C@H](NC(=O)[C@H](CCC(N)=O)NC(=O)[C@H](C)NC(=O)[C@H](Cc1c[nH]c2ccccc12)NC(=O)[C@H](CCC(=O)O)NC(=O)[C@H](CCC(=O)O)NC(=O)[C@H](CCCNC(=N)N)NC(=O)[C@H](CC(C)C)NC(=O)[C@H](CO)NC(C)=O)C(=O)N[C@@H](CCC(=O)O)C(=O)N[C@H]1CSSC[C@@H](C(=O)N2CCC[C@H]2C(=O)N2CCC[C@H]2C(=O)N[C@@H](CO)C(=O)N[C@@H](CCC(=O)O)C(=O)N[C@@H](CO)C(N)=O)NC(=O)[C@H](CCCNC(=N)N)NC(=O)CNC(=O)[C@H](Cc2ccc(O)cc2)NC(=O)[C@H](C(C)C)NC(=O)[C@H](CCC(=O)O)NC1=O [Peptide E3R] (Ac-SLREEWAQIECEVYGRCPPSES-NH2; disulfide 11-17),> 1210,> 4160,> 4240,>10000,>10000,>10000,> 10000,> 4240,,
CC[C@H](C)[C@H](NC(=O)[C@H](CCC(N)=O)NC(=O)[C@H](C)NC(=O)[C@H](Cc1c[nH]c2ccccc12)NC(=O)[C@H](CCC(=O)O)NC(=O)[C@H](C)NC(=O)[C@H](CCC(=O)O)NC(=O)[C@H](CC(C)C)NC(=O)[C@H](CO)NC(C)=O)C(=O)N[C@@H](CCC(=O)O)C(=O)N[C@H]1CSSC[C@@H](C(=O)N2CCC[C@H]2C(=O)N2CCC[C@H]2C(=O)N[C@@H](CO)C(=O)N[C@@H](CCC(=O)O)C(=O)N[C@@H](CO)C(N)=O)NC(=O)[C@H](CCCNC(=N)N)NC(=O)CNC(=O)[C@H](Cc2ccc(O)cc2)NC(=O)[C@H](C(C)C)NC(=O)[C@H](CCC(=O)O)NC1=O [Peptide E4A] (Ac-SLEAEWAQIECEVYGRCPPSES-NH2; disulfide 11-17),29.0,20.0,27.5,241,205,206,217,25.5,lower than 5 fold,
